The values below come from US20240238318A1, “L-FUCOSE AND ANTI-ANDROGEN RECEPTOR THERAPY FOR TREATMENT OF CANCER” (H. LEE MOFFITT CANCER CENTER AND RESEARCH INSTITUTE, INC., priority 2021, published 2024).

This test concerns tumor growth and metastasis. Kind of test: dietary L-fucose supplementation in mouse tumor models. The format is in vivo. An excerpt:
Global fucosylation is reduced during progression in human melanomas (UEA1 fucose-binding lectin staining analysis of tumor microarray (TMA; n=˜300 patients)) via an ATF2-mediated transcriptional repression of fucokinase (FUK). However, AR transcriptionally upregulates Fucosyltransferase 4 (FUT4) expression via binding to the ARE motif in FUT4 promoter (FIG. 3). Additionally, the global tumor fucosylation is more pronounced in males relative to females (FIG. 4). […] Furthermore, the AR-FUT4 axis facilitates melanoma invasion via disrupting N-Cadherin/catenin junction complexes (FIG. 6). […] Thus, FUT4 is required for androgen-stimulated melanoma cell viability and motility (FIG. 7).

Where only a bound is given, the exact number is not on record here.

For the compound `C[C@H](O)[C@@H](O)[C@@H](O)[C@H](O)C=O` [L-fucose], the “block of tumor growth and metastasis” value is over 50%.
